Measured values taken from patent US8916586B2, “Anti-angiogenic compound” (University College Dublin—National University of Ireland, …, priority 2011, dated 2014).
Entries after “also recorded” stand apart in the source; their conditions may differ.

Columns and labels:
[1] = test system: trunk intersegmental vessels of zebrafish; assay: Quantification of intersegmental vessel number in zebrafish larvae; assay type: in vivo; details: for inhibition of developmental angiogenesis of the trunk intersegmental vessels / inhibition at 10 µM: 10 μM; for inhibition of developmental angiogenesis of the trunk intersegmental vessels: added at 6 hours post-fertilisation; for dose-dependence of inhibition of intersegmental vessel development: 0.1-10 μM; for dose-dependence of inhibition of intersegmental vessel development / inhibition at 10 µM: added at 6 hours post fertilisation; for inhibition at 10 µM: Danio rerio, read-out: inhibition of intersegmental vessel formation
Experimental: […] Larvae were manually dechorionated, euthanised, and fixed in 4% PFA at 4° C. overnight before analysis. The larvae were then washed with PBS and transferred to depression slides for observation under epi-fluorescence in an Olympus SZX16 fluorescent microscope. The number of intersegmental vessels was counted and the average number was graphed for each drug. […] At the highest concentration (10 μM), 11B was seen to inhibit intersegmental vessel formation by 44%. 11F inhibited intersegmental vessel formation by 16% at the highest concentration (10 μM).

zebrafish larvae = assay: Visual function by optokinetic response (OKR) in zebrafish larvae; assay type: in vivo; details: treated from day 2-5 or day 3-5
Experimental: Visual function was assessed using the optokinetic response, a behavioural assay that tests the ability of larval zebrafish to track moving stripes (Brockerhoff 2006). […] For these experiments the compounds were screened in zebrafish larvae as described above except that the drug (compound 11B) was added at either day 1, 2, 3 or 4, and all treated larvae were analysed at day 5.

[2] = test system: dermal-derived normal human microvascular endothelial cells (HMVEC-d); assay: Crystal violet-based proliferation assay in HMVEC-d; assay type: cell-based; details: 100 nM (FIG. 13), 24 h
Experimental: (§1) HMVEC-d were purchased from Clonetics, San Diego, Calif., USA. Cells were maintained in complete Endothelial Cell Medium (Clonetics® EGM®-2-MV BulletKit®) containing 500 ml of Endothelial Cell Basal Medium-2 and supplemented with hEGF, 0.5 ml; Hydrocortisone, 0.2 ml; GA-1000, 0.5 ml; FBS, 25 ml; VEGF, 0.5 ml; hFGF-B, 2.0 ml; R3-IGF-1, 0.5 ml; Ascorbic Acid, 0.5 ml in a 37° C. humidified atmosphere of 5% CO2/95% air. HMVEC-d were used for experiments between passages 4-8.
The responses to different compound treatments were examined using a crystal violet-based proliferation assay to test the effects of the compounds on cell proliferation. HMVEC-d were seeded in 96-well plates in complete medium at a density of 25,000 cells/cm^2 and allowed to attach in a humidified atmosphere of 5% CO2, 95% air and at 37° C. Cells were treated with the compounds at different concentrations in replicates wells, and cell proliferation was evaluated after 24 h. At the specific time point medium was removed, cells were fixed with 1% glutaraldehyde and stained with a 0.1% crystal violet solution (Pro-lab diagnostics) for 30 min. The plates were then washed extensively in water and air dried. Cell-associated dye was extracted with a 1% solution of Triton X100 and the absorbance was determined at 550 nm using a plate reader (Multiskan Ascent, Lab Systems).

[3] = test system: dermal-derived normal human microvascular endothelial cells (HMVEC-d); assay: HMVEC-d cell migration (CIM-plate 16, xCELLigence); assay type: cell-based; details: 100 nM (FIG. 13)
Experimental: as §1
Continuous monitoring of HMVEC-d cultures cell migration was recorded using a CIM-plate 16 (RTCA DP Analyser, xCELLigence System, Roche) with 5% serum serving as chemoattractant and following the manufacturer's protocol. Each well is composed of an upper chamber, a membrane with an interdigitated gold electrode on the underside of the microporous membrane (facing the lower chamber) and a lower chamber. Cells that have migrated to the lower chamber containing the chemoattractant attach to the gold electrodes and generate electrical impedance. Impedance readings are taken from an electronic sensor plate and reflect their attachment levels. […] The upper chamber was then clicked into position and 30 μl of serum-free media were added to cover the membrane surface. […] 5% CO2 humidified atmosphere and the Cell Index (CI) was recorded every 15 min. […]

[4] = test system: mouse model of oxygen induced retinopathy (OIR); assay: Mouse oxygen-induced retinopathy (OIR) model of ocular neovascularisation; assay type: in vivo; details: for avascular area of the retina in treated eyes: postnatal day 12-17, intravitreal
Experimental: To assess the ability of compound 11B to inhibit ocular neovascularisation in mammalian eyes, 11B was tested in the mouse model of oxygen induced retinopathy (OIR). […] 11B was injected intravitreally into a mouse model of oxygen-induced retinopathy (OIR). The OIR model was generated by placing postnatal day 7 (P7) mouse pups into hyperoxia (75% oxygen) for 5 days and then removing them to normoxia (21%) on postnatal day 12 (P12). The hyperoxic (high oxygen) environment causes retinal blood vessels to regress between P7 and P12. The normoxic environment on P12 is a relatively hypoxic (low oxygen) environment for the mice and causes the growth of new blood vessels (angiogenesis). For all samples, eyes were enucleated, fixed, flat mounted and then stained with an isolectin antibody to visualise the blood vessels. Blood vessels were quantified and those treated with lead compounds compared to controls.

[5] = test system: IL-6 secreted from explant cultures of human colorectal cancers; assay: IL-6 secretion from human colorectal tumour explants (ELISA); assay type: cell-based; details: 72 hours
Experimental: (§2) Human colorectal tumour samples were taken directly from the pathology laboratory after surgery once adequate material was taken for diagnostic testing. The tumour samples were washed and stored in DMSO/tumour conditioning media (TCM). The samples were snap-frozen in liquid nitrogen and stored at −80° C. until compound testing was performed. Prior to compound testing, the tumours were thawed and incubated in fresh TCM for 24 hours. […] The TCM solutions were collected and stored at −20° C. and the remaining tumour explants were snap-frozen in liquid nitrogen and stored at −80° C. The protein content of each tumour sample was determined using the BCA protein assay. ELISA was used to determine the levels of VEGF, IL-8, MCP-1, GRO-α, IL-1β and IL-6. The secretion data were normalised according to the tumour sample's protein content.

[6] = test system: IL-1β secreted from explant cultures of human colorectal cancers; assay: IL-1β secretion from human colorectal tumour explants (ELISA); assay type: cell-based; details: 72 hours; for level of IL-1β secreted by human tumour explants: 1 μM and 10 μM tested, concentration not given at place; for level of IL-1b secreted by human tumour explants: 10 μM
Experimental: as §2

[7] = test system: hyaloid vasculature in zebrafish; assay: Zebrafish developmental angiogenesis assay: number of primary branches of hyaloid vasculature on dissected lens; assay type: in vivo

Structure (SMILES): Oc1ccccc1/C=C/c1ccc2ccccc2n1 [11B]
- inhibition of developmental angiogenesis of the trunk intersegmental vessels [1]: significant inhibition
- dose-dependence of inhibition of intersegmental vessel development [1]: dose-dependent and statistically significant manner
- inhibition at 10 µM [1]: 44%
- effect on existing (earlier formed) intersegmental vessels of the trunk ([1]; added from day 1-5): no effect; also recorded: intact
- visual function, optokinetic response (OKR) (zebrafish larvae): no significant effect; also recorded: not statistically different from controls
- effect on HMVEC-d proliferation [2]: no significant effect; also recorded: neither 11B nor 11F had a significant effect
- effect on HMVEC-d cell migration [3]: no significant effect; also recorded: neither 11B nor 11F had a significant effect; also recorded: neither 11B nor 11F had significant effects
- avascular area of the retina in treated eyes ([4]; 0.5 μM): ~33%
- avascular area of the retina in treated eyes ([4]; 3 μM): ~30%
- increase in avascular retina relative to the avascular area in the P17 control ([4]; intraocular injections): ~2.4 fold
- inhibition of ocular neovascularisation in OIR model ([4]; intravitreal injection): inhibited angiogenesis; also recorded: can inhibit intraocular neovascularisation
- level of IL-6 secreted by human tumour explants ([5]; 1 μM and 10 μM tested, concentration not given at place): significantly reduced
- level of IL-6 secreted by human tumour explants ([5]; 1 μM): significantly reduces
- level of IL-6 secreted by human tumour explants ([5]; 10 μM): significantly reduces
- level of IL-1β secreted by human tumour explants [6]: significantly reduced
- level of IL-1b secreted by human tumour explants [6]: significantly reduces
- number of primary branches of hyaloid vasculature ([7]; 5 μM, treated day 2-5): significant reduction
- number of primary branches of hyaloid vasculature ([7]; 5 μM, treated day 3-5): no significant effect
- number of primary branches of hyaloid vasculature ([7]; 5 μM, treated day 4-5): no significant effect
- number of primary branches of hyaloid vasculature ([7]; 10 μM, treated day 2-5): significant reduction
- number of primary branches of hyaloid vasculature ([7]; 10 μM, treated day 3-5): significant reduction
- number of primary branches of hyaloid vasculature ([7]; 10 μM, treated day 4-5): no effect
- time-dependence of inhibition of developmental angiogenesis in the eye ([7]; drug added at day 1, 2, 3 or 4, analysed at day 5): time-dependent effect; also recorded: time-dependent manner

Structure (SMILES): COc1cc2c(C3CCCN3C)cnc(Cc3ccc4c(c3)OCO4)c2cc1OC (stereo not drawn) [11F, 1-(1,3-benzodioxol-5-ylmethyl)-6,7-dimethoxy-4-(1-methyl-2-pyrrolidinyl)isoquinoline]
- inhibition of developmental angiogenesis of the trunk intersegmental vessels [1]: modest but significant inhibition
- dose-dependence of inhibition of intersegmental vessel development [1]: dose-dependent and statistically significant manner
- inhibition at 10 µM [1]: 16%
- effect on HMVEC-d proliferation [2]: no significant effect; also recorded: neither 11B nor 11F had a significant effect
- effect on HMVEC-d cell migration [3]: no significant effect; also recorded: neither 11B nor 11F had a significant effect; also recorded: neither 11B nor 11F had significant effects
- level of IL-1β secreted by human tumour explants [6]: significantly reduced
- level of IL-1b secreted by human tumour explants [6]: significantly reduced
